According to patent publication EP4273147A1, “SUBSTITUTED SPIROLACTAMS, SALTS THEREOF AND THEIR USE AS HERBICIDALLY ACTIVE SUBSTANCES” (Bayer Aktiengesellschaft, priority 2022, dated 2023):

How the values were obtained:
[1] = test system: ALOMY; assay: Herbicidal pre-emergence action (Table A9); format: in vivo, Alopecurus myosuroides; details: application rate 1280 g/ha; visual grading after ca. 3 weeks
Source text: (§1) Seeds of mono- and dicotyledonous weed plants were sown in plastic pots (double sowings with one species of mono- and one species of dicotyledonous weed plants per pot), in sandy loam, and covered with soil.

[2] = test system: DIGSA; assay: Herbicidal pre-emergence action (Table A12); format: in vivo, Digitaria sanguinalis; details: visual grading after ca. 3 weeks
Source text: as §1

[3] = test system: STEME; assay: Herbicidal pre-emergence action (Table A6); format: in vivo, Stellaria media; details: visual grading after ca. 3 weeks
Source text: as §1

[4] = test system: POAAN; assay: Herbicidal pre-emergence action (Table A7); format: in vivo, Poa annua; details: visual grading after ca. 3 weeks
Source text: as §1

[5] = test system: VERPE; assay: Herbicidal pre-emergence action (Table A11); format: in vivo, Veronica persica; details: application rate 1280 g/ha; visual grading after ca. 3 weeks
Source text: as §1

[6] = test system: ECHCG; assay: Herbicidal pre-emergence action (Table A2); format: in vivo, Echinochloa crus-galli; details: visual grading after ca. 3 weeks
Source text: as §1

[7] = test system: POAAN; assay: Herbicidal post-emergence action (Table B7); format: in vivo, Poa annua; details: application rate 1280 g/ha
Description: (§2) Seeds of mono- and dicotyledonous weed plants were placed in plastic pots in sandy loam soil (doubly sown with in each case one species of mono- or dicotyledonous weed plants per pot), covered with soil and cultivated in a greenhouse under controlled growth conditions. 2 to 3 weeks after sowing, the test plants were treated at the one-leaf stage. […] After the test plants had been kept in the greenhouse under optimum growth conditions for about 3 weeks, the activity of the preparations was rated visually in comparison to untreated controls. For example, 100% activity = the plants have died, 0% activity = like control plants.

[8] = test system: SETVI; assay: Herbicidal pre-emergence action (Table A5); format: in vivo, Setaria viridis; details: visual grading after ca. 3 weeks
Source text: as §1

[9] = test system: SETVI; assay: Herbicidal post-emergence action (Table B8); format: in vivo, Setaria viridis; details: application rate 1280 g/ha
Description: as §2

[10] = test system: LOLRI; assay: Herbicidal pre-emergence action (Table A3); format: in vivo, Lolium rigidum; details: visual grading after ca. 3 weeks
Source text: as §1

[11] = test system: ECHCG; assay: Herbicidal post-emergence action (Table B3); format: in vivo, Echinochloa crus-galli; details: application rate 1280 g/ha; rated visually after about 3 weeks
Description: as §2

[12] = test system: MATIN; assay: Herbicidal pre-emergence action (Table A4); format: in vivo, Matricaria inodora; details: visual grading after ca. 3 weeks
Source text: as §1

[13] = test system: VERPE; assay: Herbicidal post-emergence action (Table B10); format: in vivo, Veronica persica
Description: as §2

[14] = test system: KCHSC; assay: Herbicidal pre-emergence action (Table A10); format: in vivo, Kochia scoparia; details: visual grading after ca. 3 weeks
Source text: as §1

[15] = test system: ECHCG; assay: Herbicidal pre-emergence action, section C (Table C6); format: in vivo, Echinochloa crus-galli; details: application rate 320 g/ha; visual grading after ca. 3 weeks
[16] = test system: VIOTR; assay: Herbicidal pre-emergence action, section C (Table C12); format: in vivo, Viola tricolor; details: application rate 320 g/ha; visual grading after ca. 3 weeks

Row | Compound | pre-emergence activity against ALOMY [1] | pre-emergence activity against DIGSA ([2]; application rate 1280 g/ha) | pre-emergence activity against STEME ([3]; application rate 1280 g/ha) | pre-emergence activity against POAAN ([4]; application rate 320 g/ha) | pre-emergence activity against ECHCG ([6]; application rate 320 g/ha) | post-emergence activity against POAAN [7] | pre-emergence activity against SETVI ([8]; application rate 320 g/ha) | pre-emergence activity against LOLRI ([10]; application rate 1280 g/ha) | pre-emergence activity against ECHCG ([6]; application rate 1280 g/ha) | pre-emergence activity against SETVI ([8]; application rate 1280 g/ha) | also measured
1 | COc1cccc(F)c1CN1CCCC2(CCCN(Cc3c(F)cccc3OC)C2=O)C1=O (racemic) [I-033] | 90% | 100% | 100% | 100% |  |  |  |  |  |  | pre-emergence activity against VERPE [5]: 90%
2 | O=C1N(Cc2ccccc2F)CCCC12CCCN(Cc1ccccc1Cl)C2=O (racemic) [I-036] | 90% |  |  | 90% | 100% | 90% | 100% |  |  |  | post-emergence activity against SETVI [9]: 90%; pre-emergence activity against LOLRI ([10]; application rate 320 g/ha): 100%; post-emergence activity against ECHCG [11]: 90%; pre-emergence activity against MATIN ([12]; application rate 320 g/ha): 90%
3 | O=C1N(Cc2ccccc2Cl)CCCC12CCCN(Cc1ccccc1Cl)C2=O (racemic) [I-054] |  |  |  | 100% | 100% |  | 100% |  |  |  | post-emergence activity against VERPE ([13]; application rate 1280 g/ha): 90%; pre-emergence activity against VERPE [5]: 90%
4 | O=C1N(Cc2ccccc2)CCCC12CCN(Cc1ccccc1F)C2=O (racemic) [I-059] |  |  | 90% | 100% | 100% | 90% | 100% | 100% |  |  | pre-emergence activity against KCHSC ([14]; application rate 1280 g/ha): 90%; pre-emergence activity against DIGSA ([2]; application rate 320 g/ha): 90%; post-emergence activity against ECHCG [11]: 90%; pre-emergence activity against MATIN ([12]; application rate 1280 g/ha): 90%
5 | O=C1N(Cc2ccsc2)CCCC12CCCN(Cc1c(F)cccc1F)C2=O (racemic) [I-075] | 90% |  | 100% |  | 100% | 90% | 90% |  |  |  | pre-emergence activity against POAAN ([4]; application rate 1280 g/ha): 100%; pre-emergence activity against LOLRI ([10]; application rate 320 g/ha): 100%; post-emergence activity against ECHCG [11]: 90%; pre-emergence activity against MATIN ([12]; application rate 1280 g/ha): 90%
6 | Cc1ccccc1CN1CCC2(CCCN(Cc3cccc(F)c3F)C2=O)C1=O (racemic) [I-080] |  | 100% | 90% | 100% |  |  |  | 90% | 100% | 100% | pre-emergence activity against KCHSC ([14]; application rate 1280 g/ha): 100%
7 | O=C1N(Cc2ccccc2F)CCC12CCCN(Cc1cccc(F)c1F)C2=O (racemic) [I-085] | 90% |  |  | 100% |  | 90% |  |  | 100% | 100% | pre-emergence activity against KCHSC ([14]; application rate 1280 g/ha): 90%; pre-emergence activity against DIGSA ([2]; application rate 320 g/ha): 90%; pre-emergence activity against STEME ([3]; application rate 320 g/ha): 90%; post-emergence activity against SETVI [9]: 90%; pre-emergence activity against LOLRI ([10]; application rate 320 g/ha): 100%; pre-emergence activity against MATIN ([12]; application rate 320 g/ha): 90%
8 | Cc1ccccc1CN1CCC2(CCCN(Cc3ccccc3F)C2=O)C1=O (racemic) [I-088] |  |  | 90% | 100% |  |  |  | 100% |  | 90% | pre-emergence activity against KCHSC ([14]; application rate 320 g/ha): 90%; pre-emergence activity against DIGSA ([2]; application rate 320 g/ha): 90%
9 | O=C1N(Cc2ccccc2C(F)(F)F)CCCC12CCCN(Cc1ccccc1C(F)(F)F)C2=O (racemic) [I-091] |  | 100% |  |  |  |  |  |  | 100% |  | pre-emergence activity against POAAN ([4]; application rate 1280 g/ha): 100%; post-emergence activity against VERPE ([13]; application rate 320 g/ha): 90%
10 | Cc1ccccc1CN1CCCC2(CCCN(Cc3ccccc3)C2=O)C1=O (racemic) [I-092] |  |  |  |  | 100% | 90% | 90% | 100% |  |  | post-emergence activity against VERPE ([13]; application rate 320 g/ha): 90%
11 | Cc1nc(Cl)sc1CN1CCCC2(CCCN(Cc3sc(Cl)nc3C)C2=O)C1=O (racemic) [I-201, 2,8-bis[(2-chloro-4-methyl-1,3-thiazol-5-yl)methyl]-2,8-diazaspiro[5.5]undecane-1,7-dione] | 100% | 90% |  |  |  | 90% |  |  |  |  | pest or weed control at 320 g/ha ([4]; Poa annua, pre-emergence, 504 h, application rate 320 g/ha, read-out: pre-emergence activity against POAAN): 100%; post-emergence activity against SETVI [9]: 90%; pest or weed control at 1280 g/ha ([10]; Lolium rigidum, pre-emergence, 504 h, application rate 1280 g/ha, read-out: pre-emergence activity against LOLRI): 100%
12 | O=C1N(Cc2ccccc2F)CCCC12CCCN(Cc1ccccc1F)C2=O (single isomer, unassigned) [I-056] |  | 100% | 90% | 100% |  |  |  | 100% | 100% | 100% | post-emergence activity against VERPE ([13]; application rate 1280 g/ha): 90%
13 | O=C1N(Cc2cc(F)c(F)cc2F)CCCC12CCCN(Cc1cc(F)c(F)cc1F)C2=O (single isomer, unassigned; (-)) [I-214, (-)-2,8-bis(2,4,5-trifluorophenylmethyl)-2,8-diazaspiro[5.5]undecane-1,7-dione] |  |  |  |  |  |  |  |  |  |  | pre-emergence activity against ECHCG [15]: 100%; pre-emergence activity against VIOTR [16]: 80%
14 | O=C1N(Cc2cccs2)CCCC12CCCN(Cc1ccccc1Cl)C2=O (stereo not shown) [I-062] |  |  |  | 100% |  | 90% | 100% |  | 100% |  | pre-emergence activity against STEME ([3]; application rate 320 g/ha): 90%; pre-emergence activity against LOLRI ([10]; application rate 320 g/ha): 100%; post-emergence activity against VERPE ([13]; application rate 1280 g/ha): 90%
15 | CC(c1ccccc1F)N1CCCC2(CCCN(C(C)c3ccccc3F)C2=O)C1=O (stereo not shown) [I-115] |  |  | 100% |  |  |  |  |  |  | 100% | pre-emergence activity against POAAN ([4]; application rate 1280 g/ha): 90%; post-emergence activity against VERPE ([13]; application rate 1280 g/ha): 90%
